Data published in patent publication US12552854B2, “Peptides that block presentation of antigenic islet peptides by HLA-DQ8 and methods for treating type-1 diabetes” (Icahn School of Medicine at Mount Sinai, priority 2019, dated 2026).
Several values for one entry are separate records, joined by “and”; a condition that tells them apart may be missing. Equal entries are not always repeated. Where two headings read alike, the source gives them in different places.

Tests used:
[1] = FIG. 23A
Procedure: (§1) Table printed on a drawing sheet, FIG. 23A
(§2) Data from a dose of 10 mg/kg and a single discrete subcutaneous dose of 10 mg/kg are shown. FIG. 23B is a graph showing mean RI-CT whole blood concentrations in male CD-1 mice following a single IV bolus dose of 10 mg/kg and a single SC dose of 10 mg/kg. […] This is a long half-life that will make it feasible to use RI-CT in a clinical setting with a once daily dose.
First reader's note: SC arm; the last four rows (n, Mean, SD, CV%) are summary statistics over the animals, and the meaning of ** is not printed on the sheet.

[2] = FIG. 23A; remark: listed apart in the source
Procedure: as §1, §2
First reader's note: IV arm; the last four rows (n, Mean, SD, CV%) are summary statistics over the animals, and the urine values are one merged cell for Mouse 1-4.

[3] = system: lymphocytes isolated from SJL-DQ8 mice immunized with GAD65; assay: Ex vivo T-cell activation to GAD65 peptide, lymphocytes of GAD65-immunized SJL-DQ8 mice; assay type: cell-based, mouse; settings: all peptides at 20 μg/ml; 48 hours
Procedure: The mouse model used in this experiment was SJL-DQ8 mice. When immunized with different type 1 diabetes associated peptides, they developed strong T-cell responses to these peptides. In the ex vivo model, lymphocytes were taken from the spleen of these mice after immunization with an Insulin or GAD65 peptide. They were then stimulated with the peptide used for immunizations and the tested D-peptide was added to see if it blocked T-cell stimulation as measured by IL-2 and interferon γ (IFNγ) production (FIGS. 18 and 19).
The cells were treated with medium or GAD65 (with or without D-peptides), all peptides at 20 μg/ml. Supernatants from stimulated lymphocytes were collected 48 hours after stimulation and stored at −80° C. until the Luminex assay was performed. The Milliplex mouse cytokines/chemokines magnetic panel (EMD Millipore Corporation, Billerica, MA) and a Luminex 200 with xPONENT software (Luminex, Austin, Texas) were used to assay the cytokines following the manufacturer's instructions.

[4] = molecular target: T1, recombinant HLA-DQ8 protein (Homo sapiens, UniProt P01909+P01920); assay: DELFIA immunoassay: inhibition of biotinylated InsB:9-23 binding to recombinant HLA-DQ8
T1 construct: contained the extracellular portion of the DQA1*0301 α chain fused to the coiled-coil region of the basic leucine zipper domain of Fos; contained the extracellular portion of the DQB1*0302 β chain fused to the coiled-coil region of the basic leucine zipper domain of JunB; Fos leucine zipper (coiled-coil region) (C); TEV protease site (internal); His6; JunB leucine zipper (coiled-coil region) (C); FLAG; host or cells: baculovirus system
Text: HLA-DQ8 protein was produced using the baculovirus system. Two constructs were designed for both the α and the β chains of HLA-DQ8. The β chain construct contained the extracellular portion of the DQB1*0302 β chain fused to the coiled-coil region of the basic leucine zipper domain of JunB, and the α chain construct contained the extracellular portion of the DQA1*0301 α chain fused to the coiled-coil region of the basic leucine zipper domain of Fos. […] A tobacco etch virus protease cutting site was introduced in each chain to allow removal of the dimerization motif. The JunB and Fos dimerization motifs were added in order to allow the α and β chains to dimerize and form the final HLA-DQ8 protein (FIG. 12A). These constructs were used to produce the HLA-DQ8 protein in a baculovirus system using the Life Technologies Baculovirus protein production custom services (Carlsbad, CA).
D-peptides were produced by Fisher Scientific (Hanover Park, IL) in dry form and dissolved in PBS. All D-peptides were screened at a concentration of 10 μM for their ability to bind to the HLA-DQ8 pocket and block it from binding the InsB:9-23 peptide using a unique immunoassay (23). […] After washing 4 times, DELFIA Europium-labeled streptavidin (PerkinElmer) diluted in DELFIA assay buffer (PerkinElmer) was added for 30 minutes and shaken at slow speed at room temperature. Since the InsB:9-23 peptide was biotinylated the complex HLA-DQ8-InsB:9-23 peptide could be detected using the Europium-labeled streptavidin. After washing for 6 times, DELFIA Enhancement Solution was added for 1 hour or until the optimal signal was reached. Time-resolved fluorescence was measured using the BMG reader (BMG Labtech, Cary, NC). The experiment was performed in triplicate. As a negative control biotinylated InsB:9-23 peptide that was not pre-incubated with HLA-DQ8 was added to the nickel coated plates.
Immunoassay was performed as described above.

[5] = molecular target: T2, HLA-DQ8 expressed on BSM cells (Homo sapiens, UniProt P01909+P01920, F237L); assay: Flow cytometric analysis of InsB:9-23 peptide binding to BSM cells; assay type: cell-based; settings: 10 μM peptide; flow cytometry
T2 construct: BSM cells that express HLA-DQ8 on their surface; host or cells: BSM cells (B-cell line homozygous for HLA-DQ8)
T2 sequence (P01920 33-261 A45G/Y58L/E77G/D89A/H199R/T217I, other chains not shown): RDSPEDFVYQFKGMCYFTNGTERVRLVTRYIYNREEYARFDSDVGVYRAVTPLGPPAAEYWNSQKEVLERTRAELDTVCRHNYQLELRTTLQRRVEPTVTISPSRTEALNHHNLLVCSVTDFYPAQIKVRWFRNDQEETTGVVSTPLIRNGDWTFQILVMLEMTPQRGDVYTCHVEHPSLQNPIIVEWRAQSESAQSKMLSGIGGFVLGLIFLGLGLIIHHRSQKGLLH
Procedure: N-terminal biotinylated peptide InsB:9-23 (or gliadin) were used to test for binding to BSM cells that express HLA-DQ8 on their surface. APC-streptavidin (BD Biosciences, Franklin Lakes, NJ) were used to detect the biotinylated peptides. […] After 24 hours incubation, cells were stained with PE-mouse anti-human HLA-DQ8 (BD Biosciences) and APC-streptavidin to detect the percent binding of the peptide to BSM cells with or without D-peptides. Percent binding was analyzed by flow cytometry.

## CC(C)C[C@@H](NC(=O)[C@@H](Cc1ccc(O)cc1)NC(=O)[C@@H](CC(C)C)NC(=O)[C@H](NC(=O)[C@@H](CS)NC(=O)CNC(=O)[C@@H](CCC(=O)O)NC(=O)[C@@H](CCCNC(=N)N)NC(=O)CNC(=O)CN)C(C)C)C(=O)N[C@H](C)C(=O)N[C@H](CCC(=O)O)C(=O)N[C@@H](C(=O)NCC(=O)NCC(=O)O)C(C)C [RI-CT]
[1]
  AUClast: 3830 ng·h/mL
  MRTinf: 4.50 h
[2]
  AUC0-24: 5340 ng·h/mL
  AUClast: 4350 ng·h/mL and 6260 ng·h/mL and 5520 ng·h/mL
  C0: 15400 ng/mL
  MRTinf: 4.72 h
  Urine | CLrenal: 2.6 mL/min/kg
  Urine | Recovery (%): 8.70%
[3]
  blocking T cell activation ex vivo to GAD65 (IL-2, IFNγ production): some activity
[4]; D-peptides screened at 10 μM, recombinant HLA-DQ8
  inhibition of InsB:9-23 binding to HLA-DQ8 (in words): significant inhibition
[4]; serially diluted to 0.5 μM, FIG. 3D
  dose dependence of the inhibition of InsB:9-23 binding to HLADQ8: dose-dependent
[5]
  inhibition of the binding of InsB:9-23 to DQ8 expressed on BSM cells (in words): inhibits the binding
